Paper PMC7334220, “Diamond Blackfan anemia is mediated by hyperactive Nemo-like kinase” (Nature Communications, 2020)

Assays:
c-Myb = c-Myb expression and phosphorylation in Kp53A1 cells switched to 32 °C (Western blot); type: cell-based; conditions: pretreated 30 min, 37 to 32 °C for 0, 16, 48 h, Fig. 7d
Description: (§1) Bars represent means ± SD with individual data points overlaid. n = 3 independent experiments performed in triplicate. […] Source data are provided as a Source Data file.
Inhibitors were added to cells at indicated concentrations with a final DMSO concentration of 0.5%. […] IC50 calculations were obtained using 8–9 concentrations of compound and generated using the IC50 Calculator software by AAT Bioquest®. NLK, p38, or ALK5 for in vitro kinase assays were immunopurified from Kp53A1 cells. NLK activation was induced by incubating cells at 32° for 24-48 h, p38 by stimulating with IL-3, IL-6, SCF, and Epo at the same concentrations used for differentiating erythroid progenitors.

NLK dimerization and p53 [1] = experiment: YFP-/CFP-NLK FRET (NLK dimerization) and p53 flow cytometry in cord blood CD34+ HSPCs; type: cell-based, human; conditions: d
Text: Ribosome-insufficiency induces stabilization of p53 protein and contributes to DBA pathogenesis[27],[57]–[59]. […] To further examine the role of p53 in NLK activation in our model and DBA patient samples, we utilized Nutlin-3. Nutlin-3 inhibits the E3 ubiquitin ligase MDM2 binding of p53 and subsequently stabilizes p53 from ubiquitin-dependent degradation. NLK dimerizes upon activation[46] and the detection of FRET from dimerized YFP- and CFP-NLK pairs correlates with NLK activity in RPS19-insufficiency (Fig. 3d). […] We gated p53 expression into p53^low in which 6.6% of cells activate NLK, and p53^hi where 91.9% of cells activate NLK (Fig. 6b.ii). RPS19-insufficiency increased the p53^hi population from 8.1 to 34.1%, corresponding to an increase from 9.0 to 36.1% of cells with elevated NLK-dimerization (Fig. 6b.iii).
Fig. 6 NLK is activated in early erythroid progenitors and requires P53 stabilization in RPS19-insufficiency. a Cord blood CD34^+ progenitors were transduced with lentivirus expressing shRNA against luciferase (shLuc) or RPS19 (shRPS19) co-expressing GFP. Cells were also transduced with or without shRNA against p53 co-expressing mCherry. […] Cells were stained for p53 and both p53 and FRET was measured by flow cytometry. […] Bone marrow mononuclear cells from three DBA patients were pooled and analyzed simultaneously (iii). d Documentation of the percentage of cells with dimerizing NLK in p53^hi and p53^low is tabulated and can be compared with NLK in vitro kinase activity. e—green Samples were gated to include non-erythroid CD71^-CD235^- populations, MEP- and BFU-E-enriched CD71^lowCD235^- populations, CFU-E-enriched CD71^hiCD235^- populations and proerythroblast and intermediate erythroblast CD71^hiCD235^+ populations. […]

NLK dimerization and p53 [2] = experiment: YFP-/CFP-NLK FRET (NLK dimerization) and p53 flow cytometry in healthy bone marrow mononuclear cells; type: cell-based, human; conditions: Nutlin-3 24 h, control 6.6%, Fig. 6c, d
Text: as §1

[3] = tested on: RPS19-insufficient cord blood CD34+ HSPCs; experiment: In vitro differentiation of cord blood CD34+ HSPCs transduced with shRNA against RPS19 (cell count and flow cytometry); type: cell-based, human; conditions: RPS19-insufficient erythroblasts treated at 100nM; rebuttal Experiment 12
Description: Cells were plated at 2000 cell per well in 96-well plates in the presence or absence of doxycycline. Relative amounts of live cells were quantified by luciferase-based Cell titer-Glo® assay. b TGFβR1 inhibitors were assessed for their ability to increase cell expansion in RPS19-insuffiency. As a control, vehicle alone (no doxycycline) is represented at the far left while all other samples were treated with doxycycline to induce RPS19-insufficiency. c Kit^+ erythroid progenitors were grown in the absence of doxycycline and in the presence of 10 µM of indicated compound. In addition, cells were treated with 5 ng/ml of TGFβ1 for 5 days before being subjected to Cell titer-Glo® assay. d Differentiating cord blood CD34^+ progenitors were transduced with shRNA against luciferase or RPS19 and treated with inhibitors at working concentrations for TGFβ inhibition every three days. […] Cells were counted and CD235^+ erythroid (i and iii) and CD11b^+ myeloid cell (ii and iv) percentages were determined by flow cytometry. The number of erythroid or myeloid cells is expressed as a percentage of the number of that lineage with no cytokine or drug treatment. Bars represent means ± SD with individual data points overlaid. n = 3 independent experiments performed in triplicate. Statistics: two-tailed Student’s t test, significant *p < 0.05. Also see Supplementary Fig. 1. Erythroid expansion is depicted in red while myeloid is in purple. Source data are provided as a Source Data file.
Cells were counted and assessed for cell surface expression of CD235. b Lin-Kit^+ hematopoietic progenitors were obtained from three mouse embryos expressing tetracycline-inducible shRNA against RPS19 at day E14.5 or three untreated mice, and thee mature RPL11^+/+ or three mature RPL11^+/lox mice treated with tamoxifen for eight weeks. […] Values were expressed as a percentage relative to untreated controls. c, d Intracellular phosphorylation of NLK at Thr298 was determined by capillary electrophoresis using the Peggy Sue™ Automated Western blotting platform. After lysis, 4 µg of protein from the CD235^+ population was probed against pThr298-NLK and normalized to GAPDH. […] After counting the total cell population, the ratio of CD235^+ erythroblasts was determined by flow cytometry and number of CD235^+ erythroblasts calculated. This was expressed as a percentage of the average number of erythroid cells present in untreated healthy controls. f NLK phosphorylation was assessed by capillary electrophoresis as above. Bars represent means ± SD with individual data points overlaid. […] Statistics: two-tailed Student’s t test, significant *p < 0.05. Also see Supplementary Fig. 8. Source data are provided as a Source Data file.
Primary human CD34^+ hematopoietic stem and progenitor cells were purified from cord or peripheral blood (New York Blood Center) or from human fetal liver tissue (Advanced Bioscience Resources and University of California, Los Angeles Center for AIDS Research) by using magnetic-activated cell sorting (Miltenyi Biotec) and were cryopreserved. Upon thawing, cells were cultured in x-Vivo15 media (Lonza) containing 10% fetal bovine serum, fms-related tyrosine kinase 3 (50 ng/ml), […] (50 ng/ml), interleukin-3 (IL-3; 20 ng/ml), interleukin-6 (IL-6; 20 ng/ml), and stem cell factor (50 ng/ml). When applied, TGFβ1 was added at 5 ng/ml. Kp53A1 cells were obtained from Javier Leon and cultured in DMEM supplemented with 10% fetal bovine serum at 37 or 32 °C.

p38 phosphorylation = p38 phosphorylation in treated cells (Western blot of pp38); type: cell-based, human; conditions: 100nM; rebuttal Experiment 12
[4] = tested on: NLK phosphorylation at Thr298; experiment: SDS-PAGE / pThr298-NLK Western blot after NLK in vitro kinase reaction (rebuttal Experiment 6); type: biochemical, human; conditions: Day 7
Description: Experiment 5. Activated p38 and NLK have different kinase specificity for NLK, c- […]
Immunopurification of activated NLK and p38 were incubated in the presence of ATP, Mg2+ and immobilized, dephosphorylated substrates. After 30 mins, the degree of substrate phosphorylation was determined. Of the four substrates examined, NL K wa s the most phosphorylated substrate detected wit h p38. The extent of phosphorylation of the other substrates by p38 was normalized to NLK as substrate , i.e. NLK-100%, c-Myb -79%, Raptor-33%, ST AT 3 -18%. Raptor was the most phosphorylated substrate of NLK. Consequently, phosphorylation of other substrates by NLK is expressed as a percentage of NLK-mediated Raptor phosphorylation, i.e . NLK-37%, c-M yb -80%, […]
Conclusion: W hile p38 and NLK can phosphorylate NLK, c-Myb and Raptor in vitro, we observe different specificities between immunoprecipitated NLK and p38. This would […]
1) W estern blotting analysis or RadioIsotope ivk assay showing increase of NLK autophosphorylation activity (Graph data is not suitable. SDS-PAGE gel data with molecular maker is suitable to show the activity of NLK itself)
Response: We performed the W estern blot analysis as requested. Purified NLK incubated with immunopurified NLK from treated samples, were separated by SDS-PAGE and immunoblotted with pThr298- NLK antibody. […]

[5] = 3 days with Nutlin-3, Fig. 6b.ii

## CC(=O)N[C@@H](CSC(=O)[C@]1([C@@H](O)C(C)C)NC(=O)[C@H](C)[C@@H]1O)C(=O)O [lactacystin]
c-Myb
  expression and phosphorylation of c-Myb after NLK activation: sustained out to 48 h

## COc1ccc(C2=N[C@@H](c3ccc(Cl)cc3)[C@@H](c3ccc(Cl)cc3)N2C(=O)N2CCNC(=O)C2)c(OC(C)C)c1 [Nutlin-3]
NLK dimerization and p53 [1]; [5]
  % FREThi in P53hi: 91.9%
  % FREThi in P53low: 6.6%
NLK dimerization and p53 [1]; shLuc, 3 days with Nutlin-3, control 9.0%, Fig. 6b
  % FREThi (cells with NLK dimerization): 50.2%
NLK dimerization and p53 [2]
  % P53hi: 31.7%

## C[C@@H]1CN(Cc2ccc(F)cc2)[C@@H](C)CN1C(=O)c1cc2c(C(=O)C(=O)N(C)C)cn(C)c2cc1Cl [SCIO-469]
[3]
  increase in erythropoiesis in RPS19-insufficiency: no increase
p38 phosphorylation
  inhibition of p38: inhibited

## CNC(=O)c1ccc(C)c(-n2c(C)cc(OCc3ccc(F)cc3F)c(Br)c2=O)c1 [PH797804]
[3]
  increase in erythropoiesis in RPS19-insufficiency: no increase
[4]
  phosphorylation of NLK at Thr298 by NLK immunopurified from treated RPS19-insufficient cells: not suppressed
p38 phosphorylation
  inhibition of p38: inhibited
